In one data set the test system is RS4; 11 cells. The data set is described as follows: Test 2: inhibition of cell proliferation, RS4;11. In kind it is cell-based. Conditions: for cell proliferation inhibition activity, good (in words) / cell proliferation inhibitory activity, potent (in words): summary of Test 2 table, RS4;11 and MOLM-13; for IC50: Homo sapiens, 168 h, RS4;11 cells, 7 days, PrestoBlue cell viability. As for the experimental part:
(§1) Test 2: Test for Evaluating the Inhibition of Cell Proliferation
(§2) RS4; 11 cells were obtained from American Type Culture Collection (ATCC). The cells were cultured at 37° C. in the presence of 5% CO2 in RPMI 1640 medium containing 10% fetal bovine serum and 1% penicillin/streptomycin. MOLM-13 cells were separately obtained from DSMZ (Deutsche Sammlung von Mikroorganismen und Zellkulturen GmbH). The cells were cultured at 37° C. in the presence of 5% CO2 in RPMI 1640 medium containing […] and 1% penicillin/streptomycin.
(§3) The cells were plated to a 96-well plate in 2000 cells/well, each test compound was added thereto to adjust the final concentration of DMSO to 0.1% of DMSO, and the cells were cultured for 7 days. After the cultivation, the cell viability was calculated with PrestoBlue™ Cell Viability Reagent (Invitrogen, A13261). The IC50 value was calculated from a survival curve, that corresponds to the concentration of the test compound at which the cell proliferation inhibition rate is 50%.

For data set [1] the following is noted: mouse, in vivo, po, 100 mg/kg.
Description: Test 4: Pharmacokinetic Study
(§6) The test compound suspended in 0.5% methylcellulose was orally administered to 7-week-old male NOD. CB17-Prkdcscid/J mouse in a dose of 100 mg/kg. The blood sample was taken from jugular vein without anesthesia over time for 24 hours. The blood sample was centrifuged to obtain plasma. The plasma was pre-treated by methanol extraction method, and then analyzed with an LC-MS/MS to determine the concentration of the test compound. Based on the data from 0 hour after the administration until the time (t) when there was the final detection in the plasma, AUC was calculated by trapezoidal method.
Data set [2] is described as follows: Test 4: pharmacokinetic study, oral, mouse. The conditions noted are these: for AUC(0-t): male, NOD.CB17-Prkdcscid/J, plasma, po, 100 mg/kg; for compound-exposure in plasma (in words): summary of Test 4 table, oral 100 mg/kg.
Description: Test 4: Pharmacokinetic Study
as §6
The subject of another data set is MEIS1. Put plainly: Test 3: inhibition of mRNA transcription, MEIS1 in MV4;11 cells. Format: cell-based. The conditions noted are these: for mRNA at 1 μM (% control) MEIS1: MV4;11 cells, 20 to 24 hours, fitted with GAPDH; for mRNA transcription inhibition activity (in words): summary of Test 3 table, MEIS1 and HOXA9, MV4;11 cells, 1 μM. As for the experimental part:
(§4) Test 3: Test for the Inhibition of mRNA Transcription with Test Compounds
(§5) MV4; 11 cells were obtained from American Type Culture Collection (ATCC). The cells were cultured at 37° C. in the presence of 5% CO2 in RPMI 1640 medium containing 10% fetal bovine serum and 1% penicillin/streptomycin. To the MV4; 11 cells was added each test compound to adjust the final concentration to 1 μmol/L, and the cells were cultured at 37° C. in the presence of 5% CO2 for 20 to 24 hours. After the incubation, the total RNA was extracted from the cells with RNeasy™ Mini Kit (QIAGEN, 74106), and CDNA was synthesized with Superscript™ VILO™ CDNA Synthesis Kit (Invitrogen, #11754250). By using TaqMan™ Gene Expression Master Mix (Applied Biosystems, 4369016) and TaqMan™ probe (Applied Biosystems), the expression level of mRNA was quantified from the obtained cDNA with 7900HT (Applied Biosystems). The mRNA expression level of each obtained gene was fitted with the expression level of mRNA of GAPDH.

The test system of another data set is HOXA9. The data set is described as follows: Test 3: inhibition of mRNA transcription, HOXA9 in MV4;11 cells. Format: cell-based. Conditions: 20 to 24 hours, fitted with GAPDH. As for the experimental part: as §4, §5
Data set [3] concerns the target T1, Menin-MLL binding (His-Menin1-615 and MLL1-172-FLAG) (Homo sapiens, UniProt O00255).
T1 construct: Menin1-615 wherein 6× His tag and HA tag are inserted in the N-terminus; HA (N); myc (C)
T1 sequence (O00255 1-615 isoform O00255-1): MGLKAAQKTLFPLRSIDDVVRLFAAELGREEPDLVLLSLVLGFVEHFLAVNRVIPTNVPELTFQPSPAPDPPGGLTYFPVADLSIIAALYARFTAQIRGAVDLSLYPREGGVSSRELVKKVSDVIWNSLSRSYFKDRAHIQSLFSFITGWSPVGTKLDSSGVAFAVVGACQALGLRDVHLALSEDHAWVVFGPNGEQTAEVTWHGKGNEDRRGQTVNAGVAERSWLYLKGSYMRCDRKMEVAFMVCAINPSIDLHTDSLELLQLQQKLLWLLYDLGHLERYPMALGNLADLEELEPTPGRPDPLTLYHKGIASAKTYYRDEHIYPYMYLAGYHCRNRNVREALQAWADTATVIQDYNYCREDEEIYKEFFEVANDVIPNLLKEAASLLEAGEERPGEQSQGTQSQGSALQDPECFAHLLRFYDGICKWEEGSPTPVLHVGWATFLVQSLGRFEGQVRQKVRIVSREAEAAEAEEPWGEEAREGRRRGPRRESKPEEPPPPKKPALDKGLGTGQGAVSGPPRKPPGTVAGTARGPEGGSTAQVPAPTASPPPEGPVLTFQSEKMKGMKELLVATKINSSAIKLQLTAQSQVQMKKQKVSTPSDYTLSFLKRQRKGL
The data set is described as follows: Test 1: inhibition of the menin-MLL binding (HTRF). Conditions: for IC50: His-Menin1-615 30 nmol/L, MLL1-172-FLAG 50 nmol/L; for menin-MLL binding inhibition activity (in words): summary of Test 1 table. As for the experimental part: Test 1: Test for Evaluating the Inhibition of the Menin-MLL Binding
Menin1-615 wherein 6× His tag and HA tag are inserted in the N-terminus, and myc tag is inserted in the C-terminus (hereinafter, referred to as His-Menin1-615), was diluted with an assay buffer (25 mmol/L HEPES, 150 mmol/L NaCl, 1 mmol/L dithiothreitol, 0.5% (w/v) Tween 80, 0.3% (w/v) BSA, 0.3% (w/v) skim milk) to adjust the final concentration to 30 nmol/L. The test compounds were also diluted with the assay buffer to adjust each concentration of the test compounds to 0.005 to 5 μmol/L. The prepared His-Menin1-615 and test compounds were added to a light-shielding 384-well low-volume plate (Corning, #4514) in 2 μL/well and […], respectively, and the plate was covered with a lid for light-shielding (Corning, #3935), and incubated at room temperature for 3 hours. After the incubation, MLL1-172 wherein FLAG tag is inserted in the C-terminus (MLL1-172-FLAG), was separately diluted with the assay buffer to adjust the final concentration to 50 nmol/L. The prepared MLL1-172-FLAG was added to the above plate in 2 μL/well, and the plate was covered with a lid for light-shielding and incubated at room temperature for an hour.
Then, anti-6HIS-d2 antibody (cisbio, 61HISDLA) and anti-FLAGM2-K antibody (cisbio, 61FG2KLA) were diluted with an antibody dilution buffer (50 mmol/L Tris, 150 mmol/L NaCl, 800 mmol/L KF, pH 7.4) to adjust the final concentration to 1.4 μg/mL to prepare an antibody mixture. The prepared antibody mixture was added to the above plate in 10 μL/well, and the plate was covered with a lid and incubated at 4° C. for 17 to 24 hours. After the incubation, the signal was detected with RUBYstar (BMG LABTECH).
Background: Time-resolved FRET reads energy transfer from a long-lived donor to a nearby acceptor.

A further data set has as its system MOLM-13 cells. Put plainly: Test 2: inhibition of cell proliferation, MOLM-13. In kind it is cell-based. Conditions: Homo sapiens, 168 h, 7 days, PrestoBlue cell viability. As for the experimental part:
as §1, §2, §3

Each structure is given as a SMILES string. Like-named read-outs stand apart in the source and are kept apart here.

Results on five compounds are retold here after US12662494B2, “Optically active bridged piperidine derivative” (Sumitomo Pharma Co., Ltd., priority 2018, dated 2026).

In general, AUC(0-t) refers to the area under the concentration-time curve up to a stated or last time point. In the case of `[2H]C([2H])=C1C[C@@H]2CC[C@H]1[C@@H](C(=O)N1CCC3(CC1)CN(c1c(C#N)cnc4sc(CC(F)(F)F)cc14)C3)N2` [Example 24, 4-{7-[(1S,3S,4R)-5-(^2H2)methylidene-2-azabicyclo[2.2.2]octane-3-carbonyl]-2,7-diazaspiro[3.5]nonan-2-yl}-2-(2,2,2-trifluoroethyl)thieno[2,3-b]pyridine-5-carbonitrile], in the data set with RS4; 11 cells, the “cell proliferation inhibition activity, good (in words)” value (“cell proliferation inhibition activity” for short) is listed as “good cell proliferation inhibition activity” and the “cell proliferation inhibitory activity, potent (in words)” value (shortened to “cell proliferation inhibitory activity”) is “potent cell proliferation inhibitory activity”. Also, in data set [1], the AUC(0-t) worked out at 6970 ng·h/mL and the “compound-exposure in plasma (in words)” value is given as “good compound-exposure in plasma”.

Consider `[2H]C([2H])=C1C[C@@H]2CC[C@H]1[C@@H](C(=O)N1CCC3(CC1)CN(c1c(C(F)(F)F)cnc4sc(CC(F)(F)F)cc14)C3)N2` [Example 21, [(1S,3S,4R)-5-(^2H2)methylidene-2-azabicyclo[2.2.2]octan-3-yl]{2-[2-(2,2,2-trifluoroethyl)-5-(trifluoromethyl)thieno[2,3-b]pyridin-4-yl]-2,7-diazaspiro[3.5]nonan-7-yl}methanone], for which, in the data set on RS4; 11 cells, the “cell proliferation inhibition activity” value is “good cell proliferation inhibition activity” and the “cell proliferation inhibitory activity” value is listed as “potent cell proliferation inhibitory activity”. Further, in data set [1], the AUC(0-t) stood at 24300 ng·h/mL and the “compound-exposure in plasma (in words)” value is listed as “good compound-exposure in plasma”.

What is called IC50 is the concentration that inhibits the measured activity by half. Low values mean inhibition by little substance, high ones a need for much substance. As for `O=C([C@H]1N[C@H]2CC[C@@H]1[C@H](F)[C@@H]2CC1CC1)N1CC2(C1)CN(c1c(C(F)(F)F)cnc3sc(CC(F)(F)F)cc13)C2` [Example 11, [(1S,3S,4S,5R,6R)-6-(cyclopropylmethyl)-5-fluoro-2-azabicyclo[2.2.2]octan-3-yl]{6-[2-(2,2,2-trifluoroethyl)-5-(trifluoromethyl)thieno[2,3-b]pyridin-4-yl]-2,6-diazaspiro[3.3]heptan-2-yl}methanone], in data set [2], the AUC(0-t) amounted to 6740 ng·h/mL and the “compound-exposure in plasma (in words)” value is on record as “good compound-exposure in plasma”. Further, in the data set with MEIS1, the “mRNA at 1 μM (% control) MEIS1” value is on record as 20.6 % control and the “mRNA transcription inhibition activity (in words)” value is listed as “mRNA transcription inhibition activity”. Further, the “mRNA at 1 μM (% control) HOXA9” value in the data set with HOXA9 is listed as 45.0 % control. Besides, in the data set on RS4; 11 cells, half-maximal inhibition (IC50) required 80 nM; the “cell proliferation inhibition activity” value is given as “good cell proliferation inhibition activity”; the “cell proliferation inhibitory activity” value is given as “potent cell proliferation inhibitory activity”. For the same compound, in data set [3], the IC50 stood at 18.8 nM and the “menin-MLL binding inhibition activity (in words)” value is recorded as “potent menin-MLL binding inhibition activity”. The compound further returned an IC50 in the data set with MOLM-13 cells of 150 nM.

In data set [2], `N#Cc1cnc2sc(CC(F)(F)F)cc2c1N1CC2(CN(C(=O)[C@H]3N[C@H]4CC[C@@H]3[C@H](F)[C@@H]4CC3CC3)C2)C1` [Example 12, 4-{6-[(1S,3S,4S,5R,6R)-6-(cyclopropylmethyl)-5-fluoro-2-azabicyclo[2.2.2]octane-3-carbonyl]-2,6-diazaspiro[3.3]heptan-2-yl}-2-(2,2,2-trifluoroethyl)thieno[2,3-b]pyridine-5-carbonitrile] returned an AUC(0-t) of 8970 ng·h/mL. The “compound-exposure in plasma (in words)” value in data set [2] is listed as “good compound-exposure in plasma”. Further, the “mRNA at 1 μM (% control) MEIS1” value in the data set on MEIS1 turned out to be 18.4 % control. In the data set with HOXA9, the “mRNA at 1 μM (% control) HOXA9” value was 42.6 % control. Also, the IC50 amounted to 60 nM with RS4; 11 cells, 7.3 nM in data set [3] and 90 nM with MOLM-13 cells.

With `O=C([C@H]1N[C@H]2CC[C@@H]1C[C@@H]2CC1CC1)N1CC2(C1)CN(c1c(C(F)(F)F)cnc3sc(CC(F)(F)F)cc13)C2` [Example 1, [(1S,3S,4R,6S)-6-(Cyclopropylmethyl)-2-azabicyclo[2.2.2]octan-3-yl]{6-[2-(2,2,2-trifluoroethyl)-5-(trifluoromethyl)thieno[2,3-b]pyridin-4-yl]-2,6-diazaspiro[3.3]heptan-2-yl}methanone], in data set [2], the AUC(0-t) stood at 10300 ng·h/mL and the “compound-exposure in plasma (in words)” value is listed as “good compound-exposure in plasma”. Moreover, in the data set with MEIS1, the “mRNA at 1 μM (% control) MEIS1” value was 31.8 % control and the “mRNA transcription inhibition activity (in words)” value is “mRNA transcription inhibition activity”. For the same compound, the “mRNA at 1 μM (% control) HOXA9” value with HOXA9 was found to be 55.0 % control. Also, in the data set on RS4; 11 cells, 90 nM corresponded to half-maximal inhibition (IC50); the “cell proliferation inhibition activity” value is on record as “good cell proliferation inhibition activity”; the “cell proliferation inhibitory activity” value was “potent cell proliferation inhibitory activity”. Further, in data set [3], the IC50 turned out to be 36.5 nM and the “menin-MLL binding inhibition activity (in words)” value is “potent menin-MLL binding inhibition activity”. The compound also returned an IC50 with MOLM-13 cells of 280 nM.
